Assay results taken from ChEMBL document CHEMBL5465560, “Selectivity Literature for EUbOPEN Chemogenomic Library” (2024).
Each block holds one compound with its values, some of them ahead of it.

What was measured:
[1] = target: T1, Mitogen-activated protein kinase 13 (Homo sapiens) (UniProt O15264); assay: Selectivity interaction (Kinase panel (literature)) EUB0001199aCl MAPK13; details: at 1 µM
T1 sequence (whole entry): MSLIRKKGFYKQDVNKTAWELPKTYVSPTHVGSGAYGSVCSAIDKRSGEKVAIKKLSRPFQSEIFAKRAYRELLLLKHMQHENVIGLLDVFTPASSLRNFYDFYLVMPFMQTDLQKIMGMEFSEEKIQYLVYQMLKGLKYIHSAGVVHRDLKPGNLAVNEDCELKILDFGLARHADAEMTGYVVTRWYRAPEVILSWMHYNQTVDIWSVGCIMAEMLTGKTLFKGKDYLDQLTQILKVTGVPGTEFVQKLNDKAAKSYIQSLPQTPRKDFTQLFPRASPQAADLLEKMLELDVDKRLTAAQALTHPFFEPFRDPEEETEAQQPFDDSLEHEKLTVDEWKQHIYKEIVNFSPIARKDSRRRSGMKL

[2] = target: T2, Serine/threonine-protein kinase D1 (Homo sapiens) (UniProt Q15139); assay: Selectivity interaction (SelectScreen profiling (Invitrogen)) EUB0000607a PRKD1; details: at 2 µM
T2 sequence (whole entry): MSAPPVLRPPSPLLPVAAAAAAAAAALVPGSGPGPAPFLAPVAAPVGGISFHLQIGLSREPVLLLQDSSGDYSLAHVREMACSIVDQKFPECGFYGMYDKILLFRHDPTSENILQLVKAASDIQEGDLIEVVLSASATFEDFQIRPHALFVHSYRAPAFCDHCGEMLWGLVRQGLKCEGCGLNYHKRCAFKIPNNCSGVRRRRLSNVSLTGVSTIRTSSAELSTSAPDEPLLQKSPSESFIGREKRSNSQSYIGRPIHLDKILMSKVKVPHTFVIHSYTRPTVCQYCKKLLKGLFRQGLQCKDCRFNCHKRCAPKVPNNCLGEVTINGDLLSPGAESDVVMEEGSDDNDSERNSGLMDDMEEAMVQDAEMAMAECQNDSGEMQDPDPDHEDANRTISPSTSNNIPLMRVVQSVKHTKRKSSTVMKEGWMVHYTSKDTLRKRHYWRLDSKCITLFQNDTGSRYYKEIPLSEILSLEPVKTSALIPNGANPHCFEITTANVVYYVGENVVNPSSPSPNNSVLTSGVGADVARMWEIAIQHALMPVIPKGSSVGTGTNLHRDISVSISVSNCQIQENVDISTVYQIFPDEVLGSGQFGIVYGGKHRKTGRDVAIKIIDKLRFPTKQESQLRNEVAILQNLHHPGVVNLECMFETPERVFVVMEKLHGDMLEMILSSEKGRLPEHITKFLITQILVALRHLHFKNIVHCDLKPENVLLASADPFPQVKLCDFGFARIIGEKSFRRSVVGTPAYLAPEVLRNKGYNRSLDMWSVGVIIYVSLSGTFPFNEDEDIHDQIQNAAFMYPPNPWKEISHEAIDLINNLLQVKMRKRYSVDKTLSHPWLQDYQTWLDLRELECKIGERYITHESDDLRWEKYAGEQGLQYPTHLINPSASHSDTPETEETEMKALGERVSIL

[3] = target: SRSF protein kinase 3 (Homo sapiens) (UniProt Q9UPE1); assay: Selectivity interaction (ProQinase) EUB0000171b SRPK3
Sequence of SRSF protein kinase 3 (Homo sapiens) (Q9UPE1 whole entry): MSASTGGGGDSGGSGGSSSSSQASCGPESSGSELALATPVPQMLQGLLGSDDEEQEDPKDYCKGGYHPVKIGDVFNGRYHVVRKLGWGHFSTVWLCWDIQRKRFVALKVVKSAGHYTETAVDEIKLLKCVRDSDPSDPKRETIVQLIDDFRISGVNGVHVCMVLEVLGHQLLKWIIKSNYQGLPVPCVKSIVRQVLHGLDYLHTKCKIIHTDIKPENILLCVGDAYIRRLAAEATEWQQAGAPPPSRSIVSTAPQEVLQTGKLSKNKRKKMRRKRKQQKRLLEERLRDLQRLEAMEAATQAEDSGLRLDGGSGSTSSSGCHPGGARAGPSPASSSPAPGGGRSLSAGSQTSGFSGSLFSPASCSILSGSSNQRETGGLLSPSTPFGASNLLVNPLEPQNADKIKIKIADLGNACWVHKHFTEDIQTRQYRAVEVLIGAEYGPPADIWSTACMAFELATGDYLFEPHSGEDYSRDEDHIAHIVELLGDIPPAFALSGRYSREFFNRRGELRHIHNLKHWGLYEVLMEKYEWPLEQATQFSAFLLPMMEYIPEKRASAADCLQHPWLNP

[4] = target: Ribosomal protein S6 kinase alpha-5 (Homo sapiens) (UniProt O75582); assay: Selectivity interaction (KinomeScan (DiscoverX)) EUB0001049a RPS6KA5; details: at 1 µM
Sequence of Ribosomal protein S6 kinase alpha-5 (Homo sapiens) (O75582 whole entry, looked up): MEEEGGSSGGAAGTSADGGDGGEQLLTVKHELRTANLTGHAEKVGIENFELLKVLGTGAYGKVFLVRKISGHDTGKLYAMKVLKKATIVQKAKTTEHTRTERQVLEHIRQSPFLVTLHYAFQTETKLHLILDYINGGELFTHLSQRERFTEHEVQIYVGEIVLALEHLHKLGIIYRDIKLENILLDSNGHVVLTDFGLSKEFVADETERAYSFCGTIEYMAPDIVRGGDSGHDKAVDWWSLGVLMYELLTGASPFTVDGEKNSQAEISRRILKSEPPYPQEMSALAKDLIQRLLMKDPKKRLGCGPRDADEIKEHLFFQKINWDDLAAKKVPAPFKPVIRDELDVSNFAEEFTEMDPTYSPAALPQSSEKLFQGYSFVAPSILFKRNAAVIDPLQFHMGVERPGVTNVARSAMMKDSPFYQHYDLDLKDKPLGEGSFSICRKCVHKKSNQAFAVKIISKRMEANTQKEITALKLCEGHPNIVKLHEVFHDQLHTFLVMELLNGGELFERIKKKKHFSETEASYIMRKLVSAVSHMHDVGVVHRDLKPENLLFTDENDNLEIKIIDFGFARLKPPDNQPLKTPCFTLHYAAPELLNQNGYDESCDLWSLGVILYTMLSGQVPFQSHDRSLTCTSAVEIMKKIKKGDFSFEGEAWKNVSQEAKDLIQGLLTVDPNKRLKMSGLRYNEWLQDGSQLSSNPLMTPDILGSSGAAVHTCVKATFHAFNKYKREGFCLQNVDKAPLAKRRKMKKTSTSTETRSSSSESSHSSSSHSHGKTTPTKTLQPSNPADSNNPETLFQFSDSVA

[5] = target: T3, Histone-lysine N-methyltransferase NSD3 (Homo sapiens) (UniProt Q9BZ95); details: at 1 µM
T3 sequence (whole entry): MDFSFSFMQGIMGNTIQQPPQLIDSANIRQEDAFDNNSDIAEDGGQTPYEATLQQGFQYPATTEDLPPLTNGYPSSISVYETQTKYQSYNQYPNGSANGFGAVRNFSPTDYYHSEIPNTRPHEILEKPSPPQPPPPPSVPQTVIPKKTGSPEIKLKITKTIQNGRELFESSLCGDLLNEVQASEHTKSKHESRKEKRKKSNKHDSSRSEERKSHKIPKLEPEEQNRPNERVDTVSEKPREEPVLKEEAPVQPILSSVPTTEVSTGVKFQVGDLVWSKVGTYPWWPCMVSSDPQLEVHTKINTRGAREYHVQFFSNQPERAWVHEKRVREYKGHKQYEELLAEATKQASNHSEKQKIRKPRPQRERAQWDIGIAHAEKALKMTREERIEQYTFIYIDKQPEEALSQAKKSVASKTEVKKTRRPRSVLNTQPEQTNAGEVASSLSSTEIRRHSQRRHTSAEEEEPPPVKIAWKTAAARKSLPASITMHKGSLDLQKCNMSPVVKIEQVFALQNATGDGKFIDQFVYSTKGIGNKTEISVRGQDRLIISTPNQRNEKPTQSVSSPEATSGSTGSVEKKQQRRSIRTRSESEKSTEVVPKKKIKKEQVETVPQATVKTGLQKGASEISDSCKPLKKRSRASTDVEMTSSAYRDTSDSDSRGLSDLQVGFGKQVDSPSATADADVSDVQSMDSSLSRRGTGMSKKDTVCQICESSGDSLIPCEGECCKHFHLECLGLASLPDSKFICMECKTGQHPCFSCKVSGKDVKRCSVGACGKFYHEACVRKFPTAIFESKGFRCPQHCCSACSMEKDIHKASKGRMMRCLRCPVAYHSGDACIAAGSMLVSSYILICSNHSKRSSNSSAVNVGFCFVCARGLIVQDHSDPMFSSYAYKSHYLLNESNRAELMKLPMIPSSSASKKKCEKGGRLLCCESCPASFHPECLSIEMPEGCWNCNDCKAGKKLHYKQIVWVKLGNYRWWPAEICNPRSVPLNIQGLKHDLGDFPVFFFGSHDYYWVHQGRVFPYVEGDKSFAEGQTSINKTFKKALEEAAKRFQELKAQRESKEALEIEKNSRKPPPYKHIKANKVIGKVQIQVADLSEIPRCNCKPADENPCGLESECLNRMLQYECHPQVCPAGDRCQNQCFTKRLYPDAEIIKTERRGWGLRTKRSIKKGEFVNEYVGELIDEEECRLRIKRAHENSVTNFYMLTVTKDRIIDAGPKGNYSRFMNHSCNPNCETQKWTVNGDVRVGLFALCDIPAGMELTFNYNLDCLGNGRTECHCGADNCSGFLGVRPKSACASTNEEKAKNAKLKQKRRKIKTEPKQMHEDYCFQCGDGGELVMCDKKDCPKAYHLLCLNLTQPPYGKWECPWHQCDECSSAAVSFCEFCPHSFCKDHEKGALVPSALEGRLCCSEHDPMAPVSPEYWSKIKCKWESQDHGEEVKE

[6] = target: Bromodomain-containing protein 8 (Homo sapiens) (UniProt Q9H0E9); assay: Selectivity interaction (Bromodomain panel (DSF asssay)) EUB0000270b BRD8
Sequence of Bromodomain-containing protein 8 (Homo sapiens) (Q9H0E9 whole entry): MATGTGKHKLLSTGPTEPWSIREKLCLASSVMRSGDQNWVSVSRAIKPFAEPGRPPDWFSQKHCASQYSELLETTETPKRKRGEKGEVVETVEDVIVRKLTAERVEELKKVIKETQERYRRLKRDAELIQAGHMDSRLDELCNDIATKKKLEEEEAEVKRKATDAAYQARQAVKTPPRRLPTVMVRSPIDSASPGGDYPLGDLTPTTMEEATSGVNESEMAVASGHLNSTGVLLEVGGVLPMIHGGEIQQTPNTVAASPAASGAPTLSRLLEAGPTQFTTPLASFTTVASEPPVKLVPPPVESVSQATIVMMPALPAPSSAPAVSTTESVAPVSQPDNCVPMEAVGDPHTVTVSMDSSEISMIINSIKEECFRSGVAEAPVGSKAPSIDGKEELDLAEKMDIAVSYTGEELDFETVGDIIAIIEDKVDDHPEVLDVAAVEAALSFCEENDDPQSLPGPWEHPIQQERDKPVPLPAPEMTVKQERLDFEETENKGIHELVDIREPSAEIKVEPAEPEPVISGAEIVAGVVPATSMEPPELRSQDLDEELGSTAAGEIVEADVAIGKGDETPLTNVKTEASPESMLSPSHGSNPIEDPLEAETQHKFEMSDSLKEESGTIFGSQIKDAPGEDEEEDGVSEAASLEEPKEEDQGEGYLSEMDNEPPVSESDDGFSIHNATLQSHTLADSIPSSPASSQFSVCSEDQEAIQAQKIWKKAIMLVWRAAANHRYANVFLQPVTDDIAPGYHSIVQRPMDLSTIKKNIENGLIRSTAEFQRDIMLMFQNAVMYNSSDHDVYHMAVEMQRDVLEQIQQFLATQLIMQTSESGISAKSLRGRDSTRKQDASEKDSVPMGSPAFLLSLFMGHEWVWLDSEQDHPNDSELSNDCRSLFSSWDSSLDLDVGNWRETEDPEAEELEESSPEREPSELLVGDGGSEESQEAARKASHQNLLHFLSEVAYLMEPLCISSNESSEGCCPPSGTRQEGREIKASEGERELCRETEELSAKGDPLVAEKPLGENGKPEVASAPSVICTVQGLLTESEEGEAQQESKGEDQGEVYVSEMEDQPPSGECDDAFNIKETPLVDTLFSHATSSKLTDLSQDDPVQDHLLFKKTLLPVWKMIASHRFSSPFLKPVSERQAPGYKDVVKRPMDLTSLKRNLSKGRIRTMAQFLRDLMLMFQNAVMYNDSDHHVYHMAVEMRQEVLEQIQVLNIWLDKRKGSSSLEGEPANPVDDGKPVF

[7] = target: Mitogen-activated protein kinase kinase kinase 10 (Homo sapiens) (UniProt Q02779); details: at 10 µM
Sequence of Mitogen-activated protein kinase kinase kinase 10 (Homo sapiens) (Q02779 whole entry, looked up): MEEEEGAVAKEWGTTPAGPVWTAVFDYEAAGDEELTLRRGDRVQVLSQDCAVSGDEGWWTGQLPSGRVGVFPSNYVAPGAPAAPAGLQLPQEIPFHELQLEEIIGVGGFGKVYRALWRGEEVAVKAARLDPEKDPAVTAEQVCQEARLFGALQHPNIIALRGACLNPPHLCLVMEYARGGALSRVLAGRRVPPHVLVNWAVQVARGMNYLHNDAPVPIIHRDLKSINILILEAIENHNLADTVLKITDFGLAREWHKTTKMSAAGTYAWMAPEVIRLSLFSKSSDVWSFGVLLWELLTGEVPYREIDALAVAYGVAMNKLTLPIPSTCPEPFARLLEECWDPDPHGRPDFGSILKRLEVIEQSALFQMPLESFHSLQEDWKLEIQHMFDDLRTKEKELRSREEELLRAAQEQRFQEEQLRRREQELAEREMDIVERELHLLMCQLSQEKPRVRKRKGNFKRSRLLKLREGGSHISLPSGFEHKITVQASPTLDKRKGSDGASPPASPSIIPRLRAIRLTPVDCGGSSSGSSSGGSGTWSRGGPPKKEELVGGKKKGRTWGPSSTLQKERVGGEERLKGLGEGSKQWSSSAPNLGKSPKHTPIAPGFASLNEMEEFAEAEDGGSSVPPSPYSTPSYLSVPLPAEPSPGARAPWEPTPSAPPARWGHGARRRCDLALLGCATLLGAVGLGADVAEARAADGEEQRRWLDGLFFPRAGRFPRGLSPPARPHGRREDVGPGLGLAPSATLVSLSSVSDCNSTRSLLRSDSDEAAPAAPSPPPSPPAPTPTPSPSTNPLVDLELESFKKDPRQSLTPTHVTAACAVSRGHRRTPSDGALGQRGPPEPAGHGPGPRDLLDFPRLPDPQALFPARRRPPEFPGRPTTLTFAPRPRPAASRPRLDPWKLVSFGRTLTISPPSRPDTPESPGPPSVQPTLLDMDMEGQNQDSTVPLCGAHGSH

SMILES: CNC(=O)Nc1ccc(-c2nc(N3CC4CCC(C3)O4)c3cnn(C4CCC5(CC4)OCCO5)c3n2)cc1
% of inhibition [2]: 0%

SMILES: COc1cc(Nc2nc(C)cc(-c3cnn4nc(OC)ccc34)n2)cc(C(F)(F)F)c1
% of control [4]: 100%

SMILES: Cc1cc([C@@H](C)Nc2ccccc2C(=O)O)c2nc(N3CCOCC3)cc(=O)n2c1 [AZD-6482]
% of control [7]: 96%

Now from value to compound:

% of inhibition [1]: 10%
SMILES: CN1Cc2nccc(-c3cn(C)nc3-c3ccc(F)cc3)c2C1=O

% of control ([3]; at 1 µM): 97%
% of control ([3]; at 5 µM): 101%
SMILES: C=CC(=O)Nc1cccc(C(=O)Nc2ccc(Nc3cc(-c4[nH]c(SC)nc4C)ccn3)cc2)c1

% activity [5]: > 90%
SMILES: CNCCN1CCC(c2cc(CN(C)C(=O)c3cccc(Oc4ccccc4)c3)ccn2)CC1

dTM [6]: -1.17 K
SMILES: Cc1cc(CN)cc(C)c1-c1ncn(C)c1-c1cncn1C
